Drawing on US10815238B2, “Antimicrobial compounds and methods of making and using the same” (BIOVERSYS AG, priority 2013, dated 2020), this text covers MIC for 42 compounds.

Structures are written as SMILES. Some results are limits rather than exact numbers.

For this experiment, the system named is Eschericia coli (E. coli) strain ATCC25922. In words: Standard microdilution assay, MIC against E. coli ATCC25922. Type of experiment: cell-based. The conditions noted are these: Escherichia coli; E. coli strain ATCC25922, standard microdilution assay; cutoff 16 micrograms/mL; read-out: MIC E. Coli. The essentials: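 MIC determined by broth microdilution following CLSI protocols, with reference strains run in parallel for quality control. Activity scored +/− at a cutoff of 16 micrograms/mL.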
Background: Dilution methods test growth across graded concentrations, often in twofold steps.
As a reminder, the MIC is the least concentration at which growth counts as inhibited. In the case of `C[C@H](N)CCCc1cc(Cl)c(F)c(-c2cc3cn(-c4ccc(CN)cc4)c(=O)nc3[nH]2)c1` [Compound 136], the MIC is > 16 µg/mL. The figure for `C[C@H](N)CCCc1cc(SC(F)(F)F)cc(-c2cc3cn(-c4ccc(CN)cc4)c(=O)nc3[nH]2)c1` [Compound 137] is > 16 µg/mL; for `O=C(O)CCNCc1ccc(-n2cc3cc[nH]c3nc2=O)cc1` [Compound 138] it is > 16 µg/mL.

As for `C[C@H](N)CCCc1cc(Cl)c(F)c(-c2cc3cn(-c4ccc(CNCCC(=O)O)cc4)c(=O)nc3[nH]2)c1` [Compound 139], the minimum inhibitory concentration (MIC) was > 16 µg/mL. For `C[C@H](N)CCCc1cc(SC(F)(F)F)cc(-c2cc3cn(-c4ccc(CNCCC(=O)O)cc4)c(=O)nc3[nH]2)c1` [Compound 140] the value was > 16 µg/mL; for `COC(=O)CCNCc1ccc(-n2cc3cc(-c4cc(CCC[C@H](C)N)cc(SC(F)(F)F)c4)[nH]c3nc2=O)cc1` [Compound 141], > 16 µg/mL. For `CNCCNCc1ccc(-n2cc3cc[nH]c3nc2=O)cc1` [Compound 142] the value was > 16 µg/mL; for `C=C[C@H](N)CCNCc1ccc(-n2cc3cc(-c4cc(CCC[C@H](C)N)cc(Cl)c4F)[nH]c3nc2=O)cc1` [Compound 143], < 16 µg/mL. The figure for `COc1ccc(CNCc2ccc(-n3cc4cc[nH]c4nc3=O)cc2)cn1` [Compound 144] is > 16 µg/mL.

`COc1ccc(CNCc2ccc(-n3cc4cc(-c5cc(CCC[C@H](C)N)cc(Cl)c5F)[nH]c4nc3=O)cc2)cn1` [Compound 145]: the MIC was > 16 µg/mL. The figure for `COc1ccc(CNCc2ccc(-n3cc4cc(-c5cc(CCC[C@H](C)N)cc(SC(F)(F)F)c5)[nH]c4nc3=O)cc2)cn1` [Compound 146] is > 16 µg/mL; for `C[C@H](N)CCCc1cc(SC(F)(F)F)cc(-c2cc3cn(-c4ccc(CNCc5ccc(=O)[nH]c5)cc4)c(=O)nc3[nH]2)c1` [Compound 147] it is > 16 µg/mL. The figure for `C[C@H](N)CCCc1cc(Cl)c(F)c(-c2cc3cn(-c4ccc(CNCC[C@@H](N)C5CC5)cc4)c(=O)nc3[nH]2)c1` [Compound 148] is < 16 µg/mL; for `C[C@H](N)CCCc1cc(Cl)c(F)c(-c2cc3cn(-c4ccc(CNCc5ccc(=O)[nH]c5)cc4)c(=O)nc3[nH]2)c1` [Compound 149] it is > 16 µg/mL; for `C[C@H](N)CCCc1cc(Cl)c(F)c(-c2cc3cn(-c4ccc([C@H](CF)NCCCNC(=N)N)cc4)c(=O)nc3[nH]2)c1` [Compound 150] it is < 16 µg/mL. As to `CC[C@H](N)CCNCc1ccc(-n2cc3cc(-c4cc(CCC[C@H](C)N)cc(Cl)c4F)[nH]c3nc2=O)cc1` [Compound 152], the minimum inhibitory concentration (MIC) is < 16 µg/mL. For `C[C@H](N)CCCc1cc(Cl)c(F)c(-c2cc3cn(-c4ccc([C@@H](N)CCNc5nccs5)cc4)c(=O)nc3[nH]2)c1` [Compound 153] the value was > 16 µg/mL. The figure for `CC(C)[C@H](N)CCNCc1ccc(-n2cc3cc(-c4cc(CCC[C@H](C)N)cc(Cl)c4F)[nH]c3nc2=O)cc1` [Compound 155] is < 16 µg/mL.

As for `CC(C)[C@@H](N)CCNCc1ccc(-n2cc3cc(-c4cc(CCC[C@H](C)N)cc(Cl)c4F)[nH]c3nc2=O)cc1` [Compound 156], the MIC was < 16 µg/mL. As to `C[C@H](N)CCCc1cc(SC(F)(F)F)cc(-c2cc3cn(-c4ccc([C@@H](N)CCNc5nccs5)cc4)c(=O)nc3[nH]2)c1` [Compound 157], the MIC was > 16 µg/mL. For `C[C@H](N)CCCc1cc(Cl)c(F)c(-c2cc3cn(-c4ccc(CNCc5cnc(N)s5)cc4)c(=O)nc3[nH]2)c1` [Compound 158] the value was > 16 µg/mL. As for `C[C@H](N)CCCc1cc(SC(F)(F)F)cc(-c2cc3cn(-c4ccc(CNCc5cnc(N)s5)cc4)c(=O)nc3[nH]2)c1` [Compound 159], the minimal inhibitory concentration (MIC) was > 16 µg/mL.

For the compound `CC(N)CCNCc1ccc(-n2cc3cc(-c4cc(CCC[C@H](C)N)cc(Cl)c4F)[nH]c3nc2=O)cc1` (stereo partly drawn) [Compound 160], the MIC was < 16 µg/mL. Take `C[C@H](N)CCCc1cc(Cl)c(F)c(-c2cc3cn(-c4ccc([C@@H](N)CCN(C(=O)c5ccccc5)c5nccs5)cc4)c(=O)nc3[nH]2)c1` [Compound 161]: the minimum inhibitory concentration (MIC) is > 16 µg/mL. The figure for `C[C@H](N)CCCc1cc(Cl)c(F)c(-c2cc3cn(-c4ccc(CNCc5nn[nH]n5)cc4)c(=O)nc3[nH]2)c1` [Compound 162] is > 16 µg/mL; for `C[C@H](N)CCCc1cc(SC(F)(F)F)cc(-c2cc3cn(-c4ccc(CNCc5nn[nH]n5)cc4)c(=O)nc3[nH]2)c1` [Compound 163] it is > 16 µg/mL; for `C[C@H](N)CCCc1cc(-c2cc3cn(-c4ccc([C@H](C)NCCCNC(=N)N)cc4)c(=O)nc3[nH]2)cc([S+]([O-])C(F)(F)F)c1` (stereo partly drawn) [Compound 164] it is < 16 µg/mL. Consider `C[C@H](N)CCCc1cc(Cl)c(F)c(-c2cc3cn(-c4ccc(CNCC#N)cc4)c(=O)nc3[nH]2)c1` [Compound 165], for which the MIC is > 16 µg/mL.

Take `CCOC(=N)CNCc1ccc(-n2cc3cc(-c4cc(CCC[C@H](C)N)cc(Cl)c4F)[nH]c3nc2=O)cc1` [Compound 166]: the MIC was > 16 µg/mL. The figure for `C[C@H](N)CCCc1cc(Cl)c(F)c(-c2cc3cn(-c4ccc(CNCC[C@@H](N)CO)cc4)c(=O)nc3[nH]2)c1` [Compound 167] is < 16 µg/mL; for `N=C(N)NCCCN[C@@H](CCF)c1ccc(-n2cc3cc(-c4cc(CCC[C@@H](N)CF)cc(Cl)c4F)[nH]c3nc2=O)cc1` [Compound 168] it is < 16 µg/mL; for `C[C@H](N)CCCc1cc(Cl)c(F)c(-c2cc3cn(-c4ccc(CNCC(=N)N)cc4)c(=O)nc3[nH]2)c1` [Compound 169] it is > 16 µg/mL. For `C[C@H](N)CCCc1cc(SC(F)(F)F)cc(-c2cc3cn(-c4ccc(CNCC#N)cc4)c(=O)nc3[nH]2)c1` [Compound 170] the value was > 16 µg/mL. Consider `COC[C@H](N)CCCc1cc(Cl)c(F)c(-c2cc3cn(-c4ccc([C@H](C)NCCCNC(=N)N)cc4)c(=O)nc3[nH]2)c1` [Compound 171], for which the MIC is < 16 µg/mL. The figure for `C[C@H](N)CCCc1cc(Cl)c(F)c(-c2cc3cn(-c4ccc(CNCCC(N)C(F)(F)F)cc4)c(=O)nc3[nH]2)c1` (stereo partly drawn) [Compound 172] is > 16 µg/mL; for `C=C[C@@H](N)CCNCc1ccc(-n2cc3cc(-c4cc(CCC[C@H](C)N)cc(Cl)c4F)[nH]c3nc2=O)cc1` [Compound 173] it is < 16 µg/mL; for `C[C@H](N)CCCc1cc(Cl)c(F)c(-c2cc3cn(-c4ccc(CNCC[C@@H](NC(=N)N)C5CC5)cc4)c(=O)nc3[nH]2)c1` [Compound 174] it is < 16 µg/mL. The figure for `C[C@H](N)CCCc1cc(Cl)c(F)c(-c2cc3cn(-c4ccc(CNCCC(C)(C)N)cc4)c(=O)nc3[nH]2)c1` [Compound 175] is < 16 µg/mL; for `C[C@H](N)CCCc1cc(SC(F)(F)F)cc(-c2cc3cn(-c4ccc(CNCCC(C)(C)N)cc4)c(=O)nc3[nH]2)c1` [Compound 176] it is < 16 µg/mL. For `C=C[C@@H](CCNCc1ccc(-n2cc3cc(-c4cc(CCC[C@H](C)N)cc(Cl)c4F)[nH]c3nc2=O)cc1)NC(=N)N` [Compound 177] the value was < 16 µg/mL; for `COC[C@H](N)CCNCc1ccc(-n2cc3cc(-c4cc(CCC[C@H](C)N)cc(Cl)c4F)[nH]c3nc2=O)cc1` [Compound 178], < 16 µg/mL. For the compound `CN[C@H](CCNCc1ccc(-n2cc3cc(-c4cc(CCC[C@H](C)N)cc(Cl)c4F)[nH]c3nc2=O)cc1)COC` [Compound 179], the MIC was < 16 µg/mL.
